Assay: Stability study on storage (polymorphic conversion followed by XRD)
Type: physicochemical
Protocol: A first aspect of the present invention provides stable polymorphic Form I of ritonavir having no tendency to convert to any other polymorphic form. […] The X-Ray powdered Diffraction (XRPD) pattern of stable Form I of ritonavir is provided in FIGS. 1a and 2a of the drawing.
(XRD pattern of the title compound stored at 25° C. after 3 months is depicted in FIG. 3).

| stability of polymorphic form upon storage (prepared as per prior art process, tendency to convert to other forms, especially Form II) | Structure (SMILES) | conversion in the polymorphic form on storage (stored at 25° C. for 3 months, XRD pattern (FIG. 3)) |
| --- | --- | --- |
|  | CC(C)c1nc(CN(C)C(=O)N[C@H](C(=O)N[C@@H](Cc2ccccc2)C[C@H](O)[C@H](Cc2ccccc2)NC(=O)OCc2cncs2)C(C)C)cs1 (relative stereo) [Example 2, [5S-(5R*,8R*,10R*,11R*)]-10-Hydroxy-2-methyl-5-(1-methylethyl)-1-[2-(1-methylethyl)-4-thiazolyl]-3,6-dioxo-8,11-bis(phenylmethyl)-2,4,7,12-tetraazamidecan-13-oic acid, 5-thiazolylmethyl ester] | no conversion in the polymorphic form was observed |
| not stable | CC(C)c1nc(CN(C)C(=O)N[C@H](C(=O)N[C@@H](Cc2ccccc2)C[C@H](O)[C@H](Cc2ccccc2)NC(=O)OCc2cncs2)C(C)C)cs1 (single isomer, unassigned) [Form I of ritonavir, [5S-(5R*,8R*,10R*,11R*)]-10-Hydroxy-2-methyl-5-(1-methylethyl)-1-[2-(1-methylethyl)-4-thiazolyl]-3,6-dioxo-8,11-bis(phenylmethyl)-2,4,7,12-tetraazamidecan-13-oic acid, 5-thiazolylmethyl ester] |  |

— US20080312300A1, “Processes for the Preparation of Stable Polymorphic Form I of Ritonavir” (priority 2005, published 2008)
